Patent US9802941B2, “Compounds and methods for inhibiting histone demethylases” (Gilead Sciences, Inc., priority 2014, dated 2017)
Like-named read-outs stand apart in the source and are kept apart here.

Experiments:
Format in all cases: biochemical
KDM4C (JMJD2C) = target: T1, KDM4C (JMJD2C) (Homo sapiens, UniProt Q9H3R0); assay: Histone lysine demethylase AlphaLISA assay, KDM4C
T1 construct: KDM4C; BRIC, Denmark; 1-349; E. coli; host or cells: E. coli
T1 sequence (Q9H3R0 1-349): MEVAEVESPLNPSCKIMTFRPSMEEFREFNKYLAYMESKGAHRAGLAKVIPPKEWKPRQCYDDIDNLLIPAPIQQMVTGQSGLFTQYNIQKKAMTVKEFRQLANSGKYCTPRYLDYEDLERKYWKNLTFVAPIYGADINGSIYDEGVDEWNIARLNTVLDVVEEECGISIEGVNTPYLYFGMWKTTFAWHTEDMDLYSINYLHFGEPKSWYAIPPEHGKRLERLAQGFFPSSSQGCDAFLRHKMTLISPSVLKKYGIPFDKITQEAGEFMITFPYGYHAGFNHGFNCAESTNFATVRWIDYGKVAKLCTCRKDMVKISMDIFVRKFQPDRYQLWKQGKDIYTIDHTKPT
Summary of the method: (§1)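 In vitro demethylase inhibition measured by AlphaLISA. Enzymes preincubated with compound 10 minutes in 50 mM Hepes (pH 7.4-8.0), 0.003-0.01% Tween-20, 0.1% BSA, 5 μM (NH4)2Fe(SO4)2 before substrate addition at room temperature.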

KDM2B (FBXL10) = target: T2, KDM2B (FBXL10) (Homo sapiens, UniProt Q8NHM5); assay: Histone lysine demethylase AlphaLISA assay, KDM2B
T2 construct: KDM2B; BPS,; 1-650; Bac; purchased BPS Bioscience, US; host or cells: baculovirus system
T2 sequence (Q8NHM5 1-650): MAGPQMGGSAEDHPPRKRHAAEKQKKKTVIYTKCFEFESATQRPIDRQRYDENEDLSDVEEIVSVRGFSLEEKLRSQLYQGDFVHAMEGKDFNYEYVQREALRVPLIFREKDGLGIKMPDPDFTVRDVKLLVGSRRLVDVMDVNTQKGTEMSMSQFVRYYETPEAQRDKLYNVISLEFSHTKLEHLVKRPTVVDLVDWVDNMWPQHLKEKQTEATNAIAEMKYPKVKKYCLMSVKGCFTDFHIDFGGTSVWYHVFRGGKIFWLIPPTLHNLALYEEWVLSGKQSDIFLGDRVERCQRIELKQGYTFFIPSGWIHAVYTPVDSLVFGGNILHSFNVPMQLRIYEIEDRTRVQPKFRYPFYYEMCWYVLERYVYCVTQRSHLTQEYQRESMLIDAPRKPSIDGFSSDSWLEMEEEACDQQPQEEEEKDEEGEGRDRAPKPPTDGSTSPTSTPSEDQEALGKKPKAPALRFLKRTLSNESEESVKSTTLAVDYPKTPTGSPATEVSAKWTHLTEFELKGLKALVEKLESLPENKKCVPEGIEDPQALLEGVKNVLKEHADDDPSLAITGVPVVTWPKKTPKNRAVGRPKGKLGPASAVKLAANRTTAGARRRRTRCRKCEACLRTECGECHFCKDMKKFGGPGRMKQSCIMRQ
Summary of the method: as §1

PHF8 (KDM7) = target: T3, PHF8 (KDM7) (Homo sapiens, UniProt Q9UPP1); assay: Histone lysine demethylase AlphaLISA assay, PHF8
T3 construct: KDM7 (PHF8); BRIC; 1-1322; Bac
T3 sequence (Q9UPP1 37-440 limits assumed): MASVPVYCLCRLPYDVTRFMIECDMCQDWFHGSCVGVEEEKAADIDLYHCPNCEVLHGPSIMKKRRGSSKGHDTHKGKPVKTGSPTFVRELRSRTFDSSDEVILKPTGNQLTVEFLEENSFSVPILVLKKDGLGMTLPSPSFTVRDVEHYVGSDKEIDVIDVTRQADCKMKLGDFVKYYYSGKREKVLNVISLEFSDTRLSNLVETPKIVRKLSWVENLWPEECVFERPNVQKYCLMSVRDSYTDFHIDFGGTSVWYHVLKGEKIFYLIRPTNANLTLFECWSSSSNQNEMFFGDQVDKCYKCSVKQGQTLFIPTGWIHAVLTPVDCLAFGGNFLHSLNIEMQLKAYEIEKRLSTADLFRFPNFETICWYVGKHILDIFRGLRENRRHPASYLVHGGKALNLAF
Summary of the method: as §1

KDM6A (UTX) = target: T4, KDM6A (UTX) (Homo sapiens, UniProt O15550); assay: Histone lysine demethylase AlphaLISA assay, KDM6A
T4 construct: KDM6A (UTX); BRIC; 919-1401; E. coli; host or cells: E. coli
T4 sequence (O15550 919-1401): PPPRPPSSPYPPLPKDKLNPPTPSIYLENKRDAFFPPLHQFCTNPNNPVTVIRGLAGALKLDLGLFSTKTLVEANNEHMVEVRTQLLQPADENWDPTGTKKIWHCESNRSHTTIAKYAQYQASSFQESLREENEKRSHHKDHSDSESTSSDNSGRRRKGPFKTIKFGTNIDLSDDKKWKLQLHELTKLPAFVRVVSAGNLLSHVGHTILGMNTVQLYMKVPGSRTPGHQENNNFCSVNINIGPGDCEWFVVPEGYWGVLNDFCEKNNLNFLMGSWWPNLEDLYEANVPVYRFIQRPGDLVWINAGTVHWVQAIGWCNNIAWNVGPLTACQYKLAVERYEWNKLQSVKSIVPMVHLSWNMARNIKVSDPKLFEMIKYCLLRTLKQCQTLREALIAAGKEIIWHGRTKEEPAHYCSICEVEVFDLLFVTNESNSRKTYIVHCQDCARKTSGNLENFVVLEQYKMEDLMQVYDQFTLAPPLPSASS
Summary of the method: as §1

KDM5B (PLU-1) = target: T5, KDM5B (PLU-1) (Homo sapiens, UniProt Q9UGL1); assay: Histone lysine demethylase AlphaLISA assay, KDM5B
T5 construct: BRIC; 1-809; E. coli; host or cells: E. coli
T5 sequence (Q9UGL1 1-809): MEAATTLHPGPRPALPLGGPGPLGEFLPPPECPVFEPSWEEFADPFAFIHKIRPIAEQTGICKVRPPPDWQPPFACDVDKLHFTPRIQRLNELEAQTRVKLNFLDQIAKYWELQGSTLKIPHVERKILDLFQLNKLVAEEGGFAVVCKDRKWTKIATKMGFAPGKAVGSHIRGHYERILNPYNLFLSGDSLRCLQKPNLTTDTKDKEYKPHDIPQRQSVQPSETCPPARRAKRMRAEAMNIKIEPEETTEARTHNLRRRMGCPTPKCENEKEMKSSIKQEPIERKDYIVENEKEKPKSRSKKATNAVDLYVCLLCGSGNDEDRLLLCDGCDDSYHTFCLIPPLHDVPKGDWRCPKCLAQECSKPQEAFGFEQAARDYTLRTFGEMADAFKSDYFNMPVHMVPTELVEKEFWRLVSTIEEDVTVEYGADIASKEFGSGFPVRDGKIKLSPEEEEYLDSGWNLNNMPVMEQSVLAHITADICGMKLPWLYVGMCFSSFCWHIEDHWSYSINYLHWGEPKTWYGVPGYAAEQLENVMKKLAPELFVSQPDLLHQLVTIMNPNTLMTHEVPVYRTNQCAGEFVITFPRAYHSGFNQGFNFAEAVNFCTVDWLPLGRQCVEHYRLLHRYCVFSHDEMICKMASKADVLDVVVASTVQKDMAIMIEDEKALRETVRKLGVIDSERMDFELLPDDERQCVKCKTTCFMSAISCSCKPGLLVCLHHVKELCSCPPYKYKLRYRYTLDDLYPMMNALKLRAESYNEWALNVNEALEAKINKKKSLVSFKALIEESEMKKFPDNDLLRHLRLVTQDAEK
Summary of the method: as §1

[1] = AlphaLISA assay, read-out: HDME Inhibition KDM4C (IC50)
[2] = AlphaLISA, in vitro, read-out: HDME Inhibition KDM4C
[3] = AlphaLISA, in vitro, read-out: HDME Inhibition KDM2B
[4] = AlphaLISA, in vitro, read-out: HDME Inhibition PHF8
[5] = AlphaLISA assay, read-out: HDME Inhibition KDM6A (IC50)
[6] = AlphaLISA, in vitro, read-out: HDME Inhibition KDM6A
[7] = AlphaLISA assay, read-out: HDME Inhibition KDM5B (IC50)
[8] = AlphaLISA, in vitro, read-out: HDME Inhibition KDM5B
[9] = AlphaLISA assay, read-out: HDME Inhibition PHF8 (IC50)

## Cc1cc(C(=O)O)cc(CNCc2nc3c(n2Cc2ccc(F)cc2)CCC3)n1 [Compound 25, 2-{[({1-[(4-fluorophenyl)methyl]-1H,4H,5H,6H-cyclopenta[d]imidazol-2-yl}methyl)amino]methyl}-6-methylpyridine-4-carboxylic acid]
KDM4C (JMJD2C); [1]
  IC50: > 10 µM
KDM4C (JMJD2C); [2]
  IC50: > 10 µM
KDM2B (FBXL10); [3]
  IC50: 1.13 µM
PHF8 (KDM7); [4]
  IC50: 1.21 µM
KDM6A (UTX); [5]
  IC50: > 10 µM
KDM6A (UTX); [6]
  IC50: > 10 µM
KDM5B (PLU-1); [7]
  IC50: > 10 µM
KDM5B (PLU-1); [8]
  IC50: > 10 µM

## Cc1cc(C(=O)O)cc(CNCc2ncc(CCCc3ccccc3)n2Cc2ccc(F)cc2)n1 [Compound 31, 2-{[({1-[(4-fluorophenyl)methyl]-5-(3-phenylpropyl)-1H-imidazol-2-yl}methyl)amino]methyl}-6-methylpyridine-4-carboxylic acid]
KDM4C (JMJD2C); [1]
  IC50: > 10 µM
KDM4C (JMJD2C); [2]
  IC50: > 10 µM
KDM2B (FBXL10); [3]
  IC50: 3.97 µM
PHF8 (KDM7); [9]
  IC50: > 10 µM
PHF8 (KDM7); [4]
  IC50: > 10 µM
KDM6A (UTX); [5]
  IC50: > 10 µM
KDM6A (UTX); [6]
  IC50: > 10 µM
KDM5B (PLU-1); [7]
  IC50: > 10 µM
KDM5B (PLU-1); [8]
  IC50: > 10 µM

## Cc1cc(C(=O)O)cc(CNCc2ncc(CCc3ccccc3)n2Cc2ccc(F)cc2)n1 [Compound 28, 2-{[({1-[(4-fluorophenyl)methyl]-5-(2-phenylethyl)-1H-imidazol-2-yl}methyl)amino]methyl}-6-methylpyridine-4-carboxylic acid]
KDM4C (JMJD2C); [1]
  IC50: > 10 µM
KDM4C (JMJD2C); [2]
  IC50: > 10 µM
KDM2B (FBXL10); [3]
  IC50: 0.462 µM
PHF8 (KDM7); [4]
  IC50: 1.06 µM
KDM6A (UTX); [5]
  IC50: > 10 µM
KDM6A (UTX); [6]
  IC50: > 10 µM
KDM5B (PLU-1); [7]
  IC50: > 10 µM
KDM5B (PLU-1); [8]
  IC50: > 10 µM

## CCCC(C)c1cnc(CNCc2cc(C(=O)O)cc(C)n2)n1Cc1ccc(F)cc1 (centres unmarked) [Compound 10, 2-{[({1-[(4-fluorophenyl)methyl]-5-(pentan-2-yl)-1H-imidazole-2-yl}methyl)amino]methyl}-6-methylpyridine-4-carboxylic acid]
KDM4C (JMJD2C); [2]
  IC50: 1.37 µM
KDM2B (FBXL10); AlphaLISA assay, read-out: HDME Inhibition KDM2B (IC50)
  IC50: > 10 µM
KDM2B (FBXL10); [3]
  IC50: > 10 µM
PHF8 (KDM7); [9]
  IC50: > 10 µM
PHF8 (KDM7); [4]
  IC50: > 10 µM
KDM6A (UTX); [5]
  IC50: > 10 µM
KDM6A (UTX); [6]
  IC50: > 10 µM
KDM5B (PLU-1)
  IC50: 1.28 µM

## C/C=C/c1cc(C(=O)O)cc(CNCc2nccn2Cc2ccc(F)cc2)n1 [Compound 5, 2-{[({1-[(4-fluorophenyl)methyl]-1H-imidazol-2-yl}methyl)amino]methyl}-6-[(1E)-prop-1-en-1-yl]pyridine-4-carboxylic acid]
KDM4C (JMJD2C); [1]
  IC50: > 10 µM
KDM4C (JMJD2C); [2]
  IC50: > 10 µM
KDM2B (FBXL10); [3]
  IC50: 1.6 µM
PHF8 (KDM7); [4]
  IC50: 3.76 µM
KDM6A (UTX); [5]
  IC50: > 10 µM
KDM6A (UTX); [6]
  IC50: > 10 µM
KDM5B (PLU-1); [7]
  IC50: > 10 µM
KDM5B (PLU-1); [8]
  IC50: > 10 µM

## Cc1cc(C(=O)O)cc(CNCc2nnc(Cc3ccccc3)n2Cc2ccc(F)cc2)n1 [Compound 29, 2-{[({5-benzyl-4-[(4-fluorophenyl)methyl]-4H-1,2,4-triazol-3-yl}methyl)amino]methyl}-6-methylpyridine-4-carboxylic acid]
KDM4C (JMJD2C); [1]
  IC50: > 10 µM
KDM4C (JMJD2C); [2]
  IC50: > 10 µM
KDM2B (FBXL10); [3]
  IC50: 1.14 µM
PHF8 (KDM7); [4]
  IC50: 2.65 µM
KDM6A (UTX); [5]
  IC50: > 10 µM
KDM6A (UTX); [6]
  IC50: > 10 µM
KDM5B (PLU-1); [7]
  IC50: > 10 µM
KDM5B (PLU-1); [8]
  IC50: > 10 µM

## Cc1cc(C(=O)O)cc(CNCCc2ccccn2)n1 [Compound 3, 2-methyl-6-({[2-(pyridin-2-yl)ethyl]amino}methyl)pyridine-4-carboxylic acid]
KDM4C (JMJD2C); [1]
  IC50: > 10 µM
KDM4C (JMJD2C); [2]
  IC50: > 10 µM
KDM2B (FBXL10); [3]
  IC50: 4.65 µM
PHF8 (KDM7); [9]
  IC50: > 10 µM
PHF8 (KDM7); [4]
  IC50: > 10 µM
KDM6A (UTX); [5]
  IC50: > 10 µM
KDM6A (UTX); [6]
  IC50: > 10 µM
KDM5B (PLU-1); [7]
  IC50: > 10 µM
KDM5B (PLU-1); [8]
  IC50: > 10 µM

## Cc1cc(C(=O)O)cc(CNCc2nnc(Cc3cccs3)n2Cc2ccc(F)cc2)n1 [Compound 40, 2-{[({4-[(4-fluorophenyl)methyl]-5-(thiophen-2-ylmethyl)-4H-1,2,4-triazol-3-yl}methyl)amino]methyl}-6-methylpyridine-4-carboxylic acid]
KDM4C (JMJD2C); [1]
  IC50: > 10 µM
KDM4C (JMJD2C); [2]
  IC50: > 10 µM
KDM2B (FBXL10); [3]
  IC50: 0.599 µM
PHF8 (KDM7); [4]
  IC50: 1.53 µM
KDM6A (UTX); [5]
  IC50: > 10 µM
KDM6A (UTX); [6]
  IC50: > 10 µM
KDM5B (PLU-1); [7]
  IC50: > 10 µM
KDM5B (PLU-1); [8]
  IC50: > 10 µM

## CCCCCCc1cccnc1CCNCc1cc(C(=O)O)cc(C)n1 [Compound 14, 2-({[2-(3-hexylpyridin-2-yl)ethyl]amino}methyl)-6-methylpyridine-4-carboxylic acid]
KDM4C (JMJD2C); [1]
  IC50: > 10 µM
KDM4C (JMJD2C); [2]
  IC50: > 10 µM
KDM2B (FBXL10); [3]
  IC50: 3.23 µM
PHF8 (KDM7); [4]
  IC50: 5.6 µM
KDM6A (UTX); [5]
  IC50: > 10 µM
KDM6A (UTX); [6]
  IC50: > 10 µM
KDM5B (PLU-1); [7]
  IC50: > 10 µM
KDM5B (PLU-1); [8]
  IC50: > 10 µM

## Cc1cc(C(=O)O)cc(CNCCc2ncccc2CCC(C)C)n1 [Compound 20, 2-methyl-6-[({2-[3-(3-methylbutyl)pyridin-2-yl]ethyl}amino)methyl]pyridine-4-carboxylic acid]
KDM4C (JMJD2C); [1]
  IC50: > 10 µM
KDM4C (JMJD2C); [2]
  IC50: > 10 µM
KDM2B (FBXL10); [3]
  IC50: 5.43 µM
PHF8 (KDM7); [9]
  IC50: > 10 µM
PHF8 (KDM7); [4]
  IC50: > 10 µM
KDM6A (UTX); [5]
  IC50: > 10 µM
KDM6A (UTX); [6]
  IC50: > 10 µM
KDM5B (PLU-1); [7]
  IC50: > 10 µM
KDM5B (PLU-1); [8]
  IC50: > 10 µM
